From patent US20250282768A1 (Janssen Pharmaceutica NV, priority 2022, published 2025)

test system: p-IKKa levels in L363 (NIK translocated multiple myeloma) cells; test: Assay 2: Effect of compounds on p-IKKa levels in L363 (NIK translocated multiple myeloma) cells; assay type: cell-based; conditions: Homo sapiens, L-363, 6 h, read-out: Assay 2 IC50 (nM), p-IKKa (Ser 176/180) in BAFF stimulated L363 cells with MG132, 6 h; average if tested more than once
In short: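 Read-out is p-IKKa Ser176/180 by AlphaLISA SureFire in lysates. Cells were BAFF-primed (250 ng/ml) overnight or left unstimulated, then exposed 6 h at 37 °C to compound with MG132 (10 μM), 0.3% DMSO. IC50 from sigmoidal curve fit, normalized between stimulated and unstimulated controls.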

SMILES	IC50
Cc1nn(-c2nccc(-c3cccc(-c4cc([C@]5(O)CCN(C)C5=O)on4)n3)n2)cc1N [Example 37, (R)-3-(3-(6-(2-(4-Amino-3-methyl-1H-pyrazol-1-yl)pyrimidin-4-yl)pyridin-2-yl)isoxazol-5-yl)-3-hydroxy-1-methylpyrrolidin-2-one]	> 500 nM
CN1CC[C@@](O)(c2cc(-c3cccc(-c4ccnc(Nc5cnn6cccnc56)n4)n3)no2)C1=O [Example 38, (R)-3-Hydroxy-1-methyl-3-(3-(6-(2-(pyrazolo[1,5-a]pyrimidin-3-ylamino)pyrimidin-4-yl)pyridin-2-yl)isoxazol-5-yl)pyrrolidin-2-one]	< 50 nM
CN1CC[C@@](O)(c2cc(-c3cccc(-c4ccnc(-n5cc(N)cn5)n4)n3)no2)C1=O [Example 39, (R)-3-(3-(6-(2-(4-Amino-1H-pyrazol-1-yl)pyrimidin-4-yl)pyridin-2-yl)isoxazol-5-yl)-3-hydroxy-1-methylpyrrolidin-2-one]	> 500 nM
CN1CC[C@@](O)(c2cc(-c3cccc(-c4ccnc(Nc5cn[nH]c5)n4)n3)no2)C1=O [Example 40, (R)-3-(3-(6-(2-((1H-Pyrazol-4-yl)amino)pyrimidin-4-yl)pyridin-2-yl)isoxazol-5-yl)-3-hydroxy-1-methylpyrrolidin-2-one]	< 50 nM
Cc1nocc1Nc1nccc(-c2cccc(-c3cc([C@]4(O)CCN(C)C4=O)on3)n2)n1 [Example 41, (R)-3-Hydroxy-1-methyl-3-(3-(6-(2-((3-methylisoxazol-4-yl)amino)pyrimidin-4-yl)pyridin-2-yl)isoxazol-5-yl)pyrrolidin-2-one]	< 50 nM
CN1CC[C@@](O)(c2cc(-c3cccc(-c4ccnc(Nc5cnn(CC(F)(F)F)c5)n4)n3)no2)C1=O [Example 42, (R)-3-Hydroxy-1-methyl-3-(3-(6-(2-((1-(2,2,2-trifluoroethyl)-1H-pyrazol-4-yl)amino)pyrimidin-4-yl)pyridin-2-yl)isoxazol-5-yl)pyrrolidin-2-one]	< 50 nM
CN1CC[C@@](O)(c2cc(-c3cccc(-c4ccnc(NC5(c6cnn(C)c6)CC5)n4)n3)no2)C1=O [Example 45, (R)-3-Hydroxy-1-methyl-3-(3-(6-(2-((1-(1-methyl-1H-pyrazol-4-yl)cyclopropyl)amino)pyrimidin-4-yl)pyridin-2-yl)isoxazol-5-yl)pyrrolidin-2-one]	> 500 nM
CCn1cc(Nc2nccc(-c3cccc(-c4cc([C@]5(O)CCN(C)C5=O)on4)n3)n2)cn1 [Example 46, (R)-3-(3-(6-(2-((1-Ethyl-1H-pyrazol-4-yl)amino)pyrimidin-4-yl)pyridin-2-yl)isoxazol-5-yl)-3-hydroxy-1-methylpyrrolidin-2-one]	< 50 nM
CN1CC[C@@](O)(c2cc(-c3cccc(-c4ccnc(Nc5ccn(C)n5)n4)n3)no2)C1=O [Example 47, (R)-3-Hydroxy-1-methyl-3-(3-(6-(2-((1-methyl-1H-pyrazol-3-yl)amino)pyrimidin-4-yl)pyridin-2-yl)isoxazol-5-yl)pyrrolidin-2-one]	< 50 nM
COc1nn(CCO)cc1Nc1nccc(-c2cccc(-c3cc([C@]4(O)CCN(C)C4=O)on3)n2)n1 [Example 48, (R)-3-Hydroxy-3-(3-(6-(2-((1-(2-hydroxyethyl)-3-methoxy-1H-pyrazol-4-yl)amino)pyrimidin-4-yl)pyridin-2-yl)isoxazol-5-yl)-1-methylpyrrolidin-2-one]	< 50 nM
COc1nn(CC(C)(C)O)cc1Nc1nccc(-c2cccc(-c3cc([C@]4(O)CCN(C)C4=O)on3)n2)n1 [Example 49, (R)-3-Hydroxy-3-(3-(6-(2-((1-(2-hydroxy-2-methylpropyl)-3-methoxy-1H-pyrazol-4-yl)amino)pyrimidin-4-yl)pyridin-2-yl)isoxazol-5-yl)-1-methylpyrrolidin-2-one]	< 50 nM
Cc1cn(C2CC(O)C2)nc1Nc1nccc(-c2cccc(-c3cc([C@]4(O)CCN(C)C4=O)on3)n2)n1 (stereo partly drawn) [Example 50, (R)-3-Hydroxy-3-(3-(6-(2-((1-(3-hydroxycyclobutyl)-4-methyl-1H-pyrazol-3-yl)amino)pyrimidin-4-yl)pyridin-2-yl)isoxazol-5-yl)-1-methylpyrrolidin-2-one]	< 50 nM
CN1CC[C@@](O)(c2cc(-c3cccc(-c4ccnc(Nc5cnn(C)c5)n4)n3)no2)C1=O [Example 52, (R)-3-Hydroxy-1-methyl-3-(3-(6-(2-((1-methyl-1H-pyrazol-4-yl)amino)pyrimidin-4-yl)pyridin-2-yl)isoxazol-5-yl)pyrrolidin-2-one]	< 50 nM
CN1CC[C@@](O)(c2cc(-c3cccc(-c4ccnc(Nc5cnn6ccccc56)n4)n3)no2)C1=O [Example 53, (R)-3-Hydroxy-1-methyl-3-(3-(6-(2-(pyrazolo[1,5-a]pyridin-3-ylamino)pyrimidin-4-yl)pyridin-2-yl)isoxazol-5-yl)pyrrolidin-2-one]	< 50 nM
CN1CC[C@@](O)(c2cc(-c3cccc(-c4ccnc(Nc5cn(C)nc5OCC(F)F)n4)n3)no2)C1=O [Example 54, (R)-3-(3-(6-(2-((3-(2,2-Difluoroethoxy)-1-methyl-1H-pyrazol-4-yl)amino)pyrimidin-4-yl)pyridin-2-yl)isoxazol-5-yl)-3-hydroxy-1-methylpyrrolidin-2-one]	< 50 nM
CCOc1nn(C)cc1Nc1nccc(-c2cccc(-c3cc([C@]4(O)CCN(C)C4=O)on3)n2)n1 [Example 55, (R)-3-(3-(6-(2-((3-Ethoxy-1-methyl-1H-pyrazol-4-yl)amino)pyrimidin-4-yl)pyridin-2-yl)isoxazol-5-yl)-3-hydroxy-1-methylpyrrolidin-2-one]	< 50 nM
CN1CC[C@@](O)(c2cc(-c3cccc(-c4ccnc(Nc5cnn(CC(F)F)c5)n4)n3)no2)C1=O [Example 56, (R)-3-(3-(6-(2-((1-(2,2-Difluoroethyl)-1H-pyrazol-4-yl)amino)pyrimidin-4-yl)pyridin-2-yl)isoxazol-5-yl)-3-hydroxy-1-methylpyrrolidin-2-one]	< 50 nM
Cc1nn(CC(F)F)cc1Nc1nccc(-c2cccc(-c3cc([C@]4(O)CCN(C)C4=O)on3)n2)n1 [Example 57, (R)-3-(3-(6-(2-((1-(2,2-Difluoroethyl)-3-methyl-1H-pyrazol-4-yl)amino)pyrimidin-4-yl)pyridin-2-yl)isoxazol-5-yl)-3-hydroxy-1-methylpyrrolidin-2-one]	< 50 nM
COc1nn(CC(F)F)cc1Nc1nccc(-c2cccc(-c3cc([C@]4(O)CCN(C)C4=O)on3)n2)n1 [Example 58, (R)-3-(3-(6-(2-((1-(2,2-Difluoroethyl)-3-methoxy-1H-pyrazol-4-yl)amino)pyrimidin-4-yl)pyridin-2-yl)isoxazol-5-yl)-3-hydroxy-1-methylpyrrolidin-2-one]	< 50 nM
CN1CC[C@@](O)(c2cc(-c3cccc(-c4ccnc(Nc5cn(C)nc5OCC(F)(F)F)n4)n3)no2)C1=O [Example 59, (R)-3-Hydroxy-1-methyl-3-(3-(6-(2-((1-methyl-3-(2,2,2-trifluoroethoxy)-1H-pyrazol-4-yl)amino)pyrimidin-4-yl)pyridin-2-yl)isoxazol-5-yl)pyrrolidin-2-one]	< 50 nM
CN1CC[C@@](O)(c2cc(-c3cccc(-c4ccnc(Nc5ccn(CCF)n5)n4)n3)no2)C1=O [Example 60, (R)-3-(3-(6-(2-((1-(2-Fluoroethyl)-1H-pyrazol-3-yl)amino)pyrimidin-4-yl)pyridin-2-yl)isoxazol-5-yl)-3-hydroxy-1-methylpyrrolidin-2-one]	< 50 nM
CN1CC[C@@](O)(c2cc(-c3cccc(-c4ccnc(Nc5cnn(CCF)c5)n4)n3)no2)C1=O [Example 61, (R)-3-(3-(6-(2-((1-(2-Fluoroethyl)-1H-pyrazol-4-yl)amino)pyrimidin-4-yl)pyridin-2-yl)isoxazol-5-yl)-3-hydroxy-1-methylpyrrolidin-2-one]	< 50 nM
CN1CC[C@@](O)(c2cc(-c3cccc(-c4ccnc(Nc5cnn(CCN6CCOCC6)c5)n4)n3)no2)C1=O [Example 62, (R)-3-Hydroxy-1-methyl-3-(3-(6-(2-((1-(2-morpholinoethyl)-1H-pyrazol-4-yl)amino)pyrimidin-4-yl)pyridin-2-yl)isoxazol-5-yl)pyrrolidin-2-one]	< 50 nM
Cc1oncc1Nc1nccc(-c2cccc(-c3cc([C@]4(O)CCN(C)C4=O)on3)n2)n1 [Example 63, (R)-3-Hydroxy-1-methyl-3-(3-(6-(2-((5-methylisoxazol-4-yl)amino)pyrimidin-4-yl)pyridin-2-yl)isoxazol-5-yl)pyrrolidin-2-one]	< 50 nM
CN1CC[C@@](O)(c2cc(-c3cccc(-c4ccnc(Nc5cnn(CC(C)(C)O)c5)n4)n3)no2)C1=O [Example 64, (R)-3-Hydroxy-3-(3-(6-(2-((1-(2-hydroxy-2-methylpropyl)-1H-pyrazol-4-yl)amino)pyrimidin-4-yl)pyridin-2-yl)isoxazol-5-yl)-1-methylpyrrolidin-2-one]	< 50 nM
CN1CC[C@@](O)(c2cc(-c3cccc(-c4ccnc(Nc5cn(C)nn5)n4)n3)no2)C1=O [Example 65, (R)-3-Hydroxy-1-methyl-3-(3-(6-(2-((1-methyl-1H-1,2,3-triazol-4-yl)amino)pyrimidin-4-yl)pyridin-2-yl)isoxazol-5-yl)pyrrolidin-2-one]	50 to 500 nM
CN1CC[C@@](O)(c2cc(-c3cccc(-c4ccnc(NC5COC5)n4)n3)no2)C1=O [Example 66, (R)-3-Hydroxy-1-methyl-3-(3-(6-(2-(oxetan-3-ylamino)pyrimidin-4-yl)pyridin-2-yl)isoxazol-5-yl)pyrrolidin-2-one]	50 to 500 nM
CN1CC[C@@](O)(c2cc(-c3cccc(-c4ccnc(NCCC(F)(F)F)n4)c3)no2)C1=O [Example 71, (R)-3-Hydroxy-1-methyl-3-(3-(3-(2-((3,3,3-trifluoropropyl)amino)pyrimidin-4-yl)phenyl)isoxazol-5-yl)pyrrolidin-2-one]	> 500 nM
